Source: patent publication US20040242503A1 (priority 2000, published 2004)
Read-outs that look alike come from different tables or passages of the source. Marks after values point to notes of the source that are not given here. One block for each molecule: values may come before it.

Key:
LLC-PK1 cells = experiment: Apical uptake of L-DOPA in LLC-PK1 cells; type: cell-based, porcine
Method: Cell culture LLC-PK1 cells, a porcine-derived proximal renal tubule epithelial cell line which retains several properties of proximal tubular epithelial cells in culture (Hull, R. N., et al., 1976, In Vitro 12; 670-677), were obtained from the American Type Culture Collection (Rockville, Md.). LLC-PK1 cells (ATCC CRL 1392; passages 198-206) and were maintained in a humidified atmosphere of 5% CO2-95% air at 37° C. and grown in Medium 199 (Sigma Chemical Company, St. Louis, Mo., USA) supplemented with 100 U/ml penicillin G, 0.25 μg/ml amphotericin B, 100 μg/ml streptomycin (Sigma), 3% foetal bovine serum (Sigma) and 25 mM N-2-hydroxyethylpiperazine-N'-2-ethanesulfonic acid (HEPES; Sigma). For subculturing, the cells were dissociated with 0.05% trypsin-EDTA, split 1:4 and subcultured in Costar flasks with 75- or 162-cm^2 growth areas (Costar, Badhoevedorp, The Netherlands). […] The cell medium was changed every 2 days, and the cells reached confluence after 3-5 days of incubation. For 24 hours prior to each experiment, the cell medium was free of foetal bovine serum. […] On the day of the experiment, the growth medium was aspirated and the cells washed with Hanks' medium; thereafter, the cell monolayers were preincubated for 15 min in Hanks' medium at 37° C. The Hanks' medium had the following composition (mM): […] Test substances were applied from the apical side only, and were present during the preincubation and incubation periods. During preincubation and incubation, the cells were continuously shaken and maintained at 37° C.

[1] = Levels of L-DOPA, dopamine, DOPAC and HVA in rat brain and kidney; type: in vivo
Method: (§1) Male Wistar rats weighing 170-280 g, kept two per cage under controlled environmental conditions (12 h light/dark cycle and room temperature 24° C.), were used in all experiments. […] The high pressure liquid chromatograph system consisted of a pump (Gilson model 302; Gilson Medical Electronics, […] Bel, France) connected to a manometric module (Gilson model 802 C) and a stainless-steel 5 μm ODS column (Biophase; Bioanalytical Systems, West Lafayette, Ind.) of 25 cm length; samples were injected by means of an automatic sample injector (Gilson model 231) connected to a Gilson dilutor (model 401). […] The detection was carried out electrochemically with a glassy carbon electrode, an Ag/AgCl reference electrode and an amperometric detector (Gilson model 141); the detector cell was operated at 0.75 V. The current produced was monitored using the Gilson 712 HPLC software.

[2] = target: T1, aromatic L-amino acid decarboxylase (AADC) (Sus scrofa, UniProt P80041); experiment: Decarboxylation of L-DOPA (AADC activity) in LLC-PK1 cells; type: cell-based, porcine; settings: read-out: inhibition of AADC activity IC50
T1 construct: host or cells: LLC-PK1 cells
T1 sequence (P80041 1-486): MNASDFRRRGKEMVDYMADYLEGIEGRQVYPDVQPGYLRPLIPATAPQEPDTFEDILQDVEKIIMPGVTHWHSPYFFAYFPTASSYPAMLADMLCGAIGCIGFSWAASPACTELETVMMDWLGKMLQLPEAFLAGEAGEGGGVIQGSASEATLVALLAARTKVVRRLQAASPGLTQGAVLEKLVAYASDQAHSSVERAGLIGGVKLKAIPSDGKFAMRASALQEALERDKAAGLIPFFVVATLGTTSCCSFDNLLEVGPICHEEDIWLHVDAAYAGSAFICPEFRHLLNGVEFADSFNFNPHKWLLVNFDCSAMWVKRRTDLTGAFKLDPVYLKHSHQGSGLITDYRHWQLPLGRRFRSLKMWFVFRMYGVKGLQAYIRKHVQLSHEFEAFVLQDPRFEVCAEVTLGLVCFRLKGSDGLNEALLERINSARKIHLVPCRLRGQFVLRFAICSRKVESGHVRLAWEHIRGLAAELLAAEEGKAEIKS
Method: On the day of the experiment, the growth medium was aspirated and the cells (LLC-PK1) washed with Hanks' medium; thereafter, the cell monolayers were preincubated for 15 min in Hanks' medium at 37° C. […] The incubation medium also contained pyridoxal phosphate (120 μM), tolcapone (1 μM) and pargyline (100 μM). […] After preincubation, cells were incubated for 6 min in Hanks' medium with 250 μM LDOPA. The reaction was terminated by the addition of 250 μl of […] perchloric acid. The acidified samples were stored at 4° C. before injection into the high pressure liquid chromatograph for the assay of dopamine.
The high pressure liquid chromatograph system consisted of a pump (Gilson model 302; Gilson Medical Electronics, Villiers le Bel, France) connected to a manometric module (Gilson model 802 C) and a stainless-steel 5 μm ODS column (Biophase; Bioanalytical Systems, West Lafayette, Ind.) of 25 cm length; samples were injected by means of an automatic sample injector (Gilson model 231) connected to a Gilson dilutor (model 401). […] The detection was carried out electrochemically with a glassy carbon electrode, an Ag/AgCl reference electrode and an amperometric detector (Gilson model 141); the detector cell was operated at 0.75 V. The current produced was monitored using the Gilson 712 HPLC software.

[3] = target: T2, aromatic L-amino acid decarboxylase (AADC) (Rattus norvegicus, UniProt P14173); experiment: Assay of AADC in rat tissues (brain, liver, kidney) under Vmax conditions; type: in vivo; settings: 30 mg/kg
T2 construct: from tissue; host or cells: brain, liver and kidney of male Wistar rats
T2 sequence (P14173 1-480): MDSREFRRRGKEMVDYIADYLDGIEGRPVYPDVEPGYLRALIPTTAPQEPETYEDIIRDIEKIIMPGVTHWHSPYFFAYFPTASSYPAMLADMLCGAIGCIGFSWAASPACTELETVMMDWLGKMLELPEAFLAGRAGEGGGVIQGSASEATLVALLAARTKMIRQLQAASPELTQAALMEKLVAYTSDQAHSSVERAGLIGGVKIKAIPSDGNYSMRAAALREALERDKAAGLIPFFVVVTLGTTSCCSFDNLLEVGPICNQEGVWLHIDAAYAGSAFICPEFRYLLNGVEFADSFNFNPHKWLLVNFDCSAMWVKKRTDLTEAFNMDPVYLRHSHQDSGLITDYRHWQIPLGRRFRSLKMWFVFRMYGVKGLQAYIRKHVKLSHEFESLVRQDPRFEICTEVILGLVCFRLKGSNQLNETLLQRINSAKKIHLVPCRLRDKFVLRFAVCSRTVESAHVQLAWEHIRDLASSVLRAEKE
Method: Male Wistar rats weighing 170-280 g, kept two per cage under controlled environmental conditions (12 h light/dark cycle and room temperature 24° C.), were used in all experiments.
The reaction was stopped by the addition of 500 μl of 2 M perchloric acid and the preparations kept at 4° C. for 60 min. The samples were then centrifuged (200 g, 2 min. 4° C.) and 500 μl aliquots of the supernatant filtered on Spin-X filter tubes (Costar) were used for the assay of dopamine.
Since high doses of benserazide may result in inhibition of AADC in brain (Da Prada, et al., 1987, Eur.

[4] = Levels of L-DOPA in plasma of rats; type: in vivo, rat; settings: oral, 30 min before L-DOPA 12 mg/kg plus benserazide 3 mg/kg
Method: as §1

[5] = brain, L-DOPA 12 mg/kg alone, 60 min
[6] = brain, R 0.3 mg/kg 30 min before L 12 mg/kg + B 3 mg/kg, 60 min after L + B
[7] = brain, R 1.0 mg/kg 30 min before L 12 mg/kg + B 3 mg/kg, 60 min after L + B
[8] = brain, R 3.0 mg/kg 30 min before L 12 mg/kg + B 3 mg/kg, 60 min after L + B
[9] = brain, R 10.0 mg/kg 30 min before L 12 mg/kg + B 3 mg/kg, 60 min after L + B
[10] = brain, R 30.0 mg/kg 30 min before L 12 mg/kg + B 3 mg/kg, 60 min after L + B
[11] = kidney, R 0.3 mg/kg 30 min before L 12 mg/kg + B 3 mg/kg, 60 min after L + B
[12] = kidney, R 1.0 mg/kg 30 min before L 12 mg/kg + B 3 mg/kg, 60 min after L + B
[13] = kidney, R 3.0 mg/kg 30 min before L 12 mg/kg + B 3 mg/kg, 60 min after L + B
[14] = kidney, R 10.0 mg/kg 30 min before L 12 mg/kg + B 3 mg/kg, 60 min after L + B
[15] = kidney, R 30.0 mg/kg 30 min before L 12 mg/kg + B 3 mg/kg, 60 min after L + B

SMILES: NC1(C(=O)O)CC2CCC1C2 (centres unmarked) [BHC, 2-aminobicyclo(2,2,1)-heptane-2-carboxylic acid]
Vmax for L-DOPA uptake in presence of inhibitor (LLC-PK1 cells; 1 mM BHC): 3783±244 pmol/mg protein/6 min | type of inhibitory effect on the accumulation of L-DOPA (LLC-PK1 cells; 1 mM BHC): competitive type | IC50 (LLC-PK1 cells; Sus scrofa, LLC-PK1, read-out: inhibition of L-DOPA uptake IC50): 407 µM | Km (LLC-PK1 cells; read-out: Km for L-DOPA uptake in presence of inhibitor, 1 mM BHC): 130 ± 19 µM

SMILES: N[C@@H](Cc1ccc(O)c(O)c1)C(=O)O [L-DOPA, L-3,4-dihydroxyphenylalanine, reference compound]
Vmax of L-DOPA apical transporter (LLC-PK1 cells; 6 min, 1 to 250 μM substrate): 3069±224 pmol mg protein/6 min | intracellular L-DOPA concentration (LLC-PK1 cells; 6 min incubation, medium concentration 0.5 μM): 4.0 ± 0.4 µM | Km (LLC-PK1 cells; read-out: Km of L-DOPA apical transporter, 6 min, 1 to 250 μM substrate): 47 ± 8 µM | DA level [1, 5]: 201.0 ± 19.6 ng/g | DOPAC level [1, 5]: 24.3 ± 2.4 ng/g | HVA level [1, 5]: 320.6 ± 37.4 ng/g | L-DOPA level [1, 5]: 9.6 ± 1.0 ng/g | DA level ([1]; kidney, L-DOPA 12 mg/kg alone, 60 min): 120.8 ± 27.5 ng/g

SMILES: CNC(C)(C)C(=O)O [MeAIB, N-(methylamino)-isobutyric acid]
effect on the uptake of L-DOPA (LLC-PK1 cells; LLC-PK1 cells): failed to affect

IC50 [2]: 0.07 µM
SMILES: NC(CO)C(=O)NNCc1ccc(O)c(O)c1O (centres unmarked) [benserazide]

kidney AADC activity reduction ([3]; rat kidney): 38% | liver AADC activity reduction ([3]; rat liver): 48%
SMILES: Oc1ccc(C=Cc2cc(O)cc(O)c2)cc1 [resveratrol]
effect on plasma levels of L-DOPA [4]: Increases in plasma levels of L-DOPA | DA level [1, 6]: 280.6 ± 36.6 ng/g | DOPAC level [1, 6]: 192.7 ± 13.8 ng/g | HVA level [1, 6]: 3975.5 ± 462.1 ng/g | L-DOPA level [1, 6]: 146.8 ± 14.9 ng/g | DOPAC level [1, 7]: 149.9 ± 15.8 ng/g | HVA level [1, 7]: 3068.6 ± 234.4 ng/g | L-DOPA level [1, 7]: 143.5 ± 29.1 ng/g | DA level [1, 8]: 412.5 ± 79.7 ng/g | DOPAC level [1, 8]: 221.2 ± 33.8 ng/g | HVA level [1, 8]: 3026.5 ± 337.2 ng/g | L-DOPA level [1, 8]: 180.9 ± 26.3 ng/g | DA level [1, 9]: 531.9 ± 41.6 ng/g | DOPAC level [1, 9]: 316.6 ± 20.9 ng/g | HVA level [1, 9]: 2449.5 ± 93.5 ng/g | L-DOPA level [1, 9]: 208.4 ± 21.8 ng/g | DA level [1, 10]: 403.2 ± 99.2 ng/g | DOPAC level [1, 10]: 257.8 ± 51.1 ng/g | HVA level [1, 10]: 3324.8 ± 529.4 ng/g | L-DOPA level [1, 10]: 294.0 ± 52.1 ng/g | DA level [1, 11]: 685.4 + 148.4 ng/g | DOPAC level [1, 11]: 564.2 + 183.0 ng/g | HVA level [1, 11]: 27169.4 ± 2617.0 ng/g | L-DOPA level [1, 11]: 857.4 + 103.3* ng/g | DA level [1, 12]: 622.5 + 61.5* ng/g | DOPAC level [1, 12]: 598.3 + 144.5 ng/g | HVA level [1, 12]: 26254.3 ± 3677.0 ng/g | L-DOPA level [1, 12]: 739.3 + 144.7* ng/g | DA level [1, 13]: 615.0 + 60.8* ng/g | DOPAC level [1, 13]: 420.4 + 33.3* ng/g | HVA level [1, 13]: 29094.8 ± 3342.3 ng/g | L-DOPA level [1, 13]: 1016.2 + 121.5* ng/g | DA level [1, 14]: 710.3 + 67.2* ng/g | DOPAC level [1, 14]: 476.3 + 52.8* ng/g | HVA level [1, 14]: 25779.8 ± 3941.7 ng/g | L-DOPA level [1, 14]: 949.3 + 126.4* ng/g | DA level [1, 15]: 864.4 + 316.1* ng/g | DOPAC level [1, 15]: 731.9 + 427.3 ng/g | HVA level [1, 15]: 27923.6 ± 10686.2 ng/g | L-DOPA level [1, 15]: 1198.6 + 225.1* ng/g
